The subject of one test is skin blood circulation. As to the kind of experiment: Change of skin blood circulation after injection of vasoconstrictors under the skin. Type of test: in vivo. The following applies: injected under the skin of human individuals, by GC(-909/-908)TT genotype. The method, then: As an example for the general usability of the GNAQ GC(−909/−908)TT polymorphism to predict drug actions, the vasoconstrictors angiotensin II, noradrenaline or endothelin were injected under the skin of human individuals, and the following change of blood circulation was recorded (FIG. 18).

The test system of the next test is GNAQ promoter. As to the kind of experiment: SEAP reporter assay of GNAQ promoter construct -798/+89 (GC or TT genotype) in stimulated HEK cells. It is filed as cell-based, human. As to conditions: construct -798/+89, stimulation with 10 nM angiotensin II, p<0.05. An excerpt:
For functional detection of a modified promoter activity in relation to specific genotypes, various fragments of the promoter with the GC or the TT genotype were cloned into the pSEAP vector to quantify the promoter activity after expression of the vector in HEK cells in a so-called reporter assay (FIG. 5). For this assay, constructs are cloned before a gene encoding the secreted alkaline phosphatase (SEAP). If the construct has promoter activity, the SEAP gene will be transcribed more, and the increased secretion of alkaline phosphatase into the cell culture medium can be measured. […] Since the polymorphism is located in this region (−697/−695 relative from the transcription starting point) showing the highest reporter activity, and furthermore a transcription factor binding site is influenced by the nucleic acid exchange, it is now studied if stimulation of HEK cells has an effect on the reporter activity of these constructs. For this, construct −798/+89 was transfected into HEK cells, together with either the GC(−909/−908) or the TT(−909/−908) polymorphism, and the cells were stimulated with serum or angiotensin II (FIG. 6). […] In order to verify if this regulation also occurs in vivo, Gαq expression was analyzed on mRNA level by real time-PCR.
(Reporter assays use an easily measured gene product as a stand-in for the process of interest.)

Another test relates to human adipocytes. The test is described as follows: Inhibition of isoprenaline-induced lipolysis (glycerol release) in human adipocyte cultures. The following applies: human adipocytes ex vivo, by GC(-909/-908)TT genotype. Type of test: cell-based. An excerpt:
The inhibiting effect of insulin on lipolysis was studied in human adipocyte cultures. For this, lipolysis was induced ex vivo in human adipocytes by isoprenaline, and the inhibiting effect of insulin was studied by adding insulin to the cultures. Lipolysis was quantified by glycerol release (Hauner et al., 2002). […] This coincides with the observation of an increased gene expression of Gq in this genotype.

As for `CC[C@H](C)[C@H](NC(=O)[C@H](CC(=O)O)NC(=O)[C@H](CC(C)C)NC(=O)[C@H](Cc1c[nH]cn1)NC(=O)[C@@H]1CSSC[C@H](N)C(=O)N[C@@H](CO)C(=O)N[C@H]2CSSC[C@H](NC(=O)[C@H](CCC(=O)O)NC(=O)[C@H](CCCCN)NC(=O)[C@H](CC(=O)O)NC(=O)[C@H](CCSC)NC(=O)[C@H](CC(C)C)NC(=O)[C@H](CO)NC(=O)[C@H](CO)NC2=O)C(=O)N[C@@H](C(C)C)C(=O)N[C@@H](Cc2ccc(O)cc2)C(=O)N[C@@H](Cc2ccccc2)C(=O)N1)C(=O)N[C@H](C(=O)N[C@@H](Cc1c[nH]c2ccccc12)C(=O)O)[C@@H](C)CC` [endothelin], in the test on skin blood circulation, the “reduction of skin blood circulation” value was “reduction of skin blood circulation is highest for the GC/GC genotype”.

For the compound `NC[C@H](O)c1ccc(O)c(O)c1` [noradrenaline], the “reduction of skin blood circulation” value in the test with skin blood circulation was “reduction of skin blood circulation is highest for the GC/GC genotype”.

In the case of “angiotensin II (DRVYIHPF; Angiotensin-2; UniProt P01019 25-32, looked up) [hormone, vasoconstrictor]”, in the test on GNAQ promoter, the “promoter activity (secreted alkaline phosphatase), GC genotype compared to TT genotype” value is “two to four times increased promoter activity compared to the TT genotype”. In the test on skin blood circulation, the “reduction of skin blood circulation” value is recorded as “reduction of skin blood circulation is highest for the GC/GC genotype”.

For the compound insulin, the “inhibiting effect on isoprenaline-induced lipolysis (glycerol release)” value with human adipocytes is on record as “inhibiting insulin effect was strongest with adipocytes from individuals with GCGC genotype”.
